Results from paper PMC6403309, “Hybrid approach to sieve out natural compounds against dual targets in Alzheimer’s Disease” (Scientific Reports, 2019).
Like-named read-outs stand apart in the source and are kept apart here.

How the values were obtained:
[1] = molecular target: T1, BACE1 (Homo sapiens, UniProt P56817); experiment: BACE1 inhibition assay (FRET activity assay kit); type: biochemical; details: for inhibition at 1 µM: read-out: Single point inhibition % (SPI1μM)
T1 construct: purchased Sigma Aldrich
T1 sequence (P56817 46-501): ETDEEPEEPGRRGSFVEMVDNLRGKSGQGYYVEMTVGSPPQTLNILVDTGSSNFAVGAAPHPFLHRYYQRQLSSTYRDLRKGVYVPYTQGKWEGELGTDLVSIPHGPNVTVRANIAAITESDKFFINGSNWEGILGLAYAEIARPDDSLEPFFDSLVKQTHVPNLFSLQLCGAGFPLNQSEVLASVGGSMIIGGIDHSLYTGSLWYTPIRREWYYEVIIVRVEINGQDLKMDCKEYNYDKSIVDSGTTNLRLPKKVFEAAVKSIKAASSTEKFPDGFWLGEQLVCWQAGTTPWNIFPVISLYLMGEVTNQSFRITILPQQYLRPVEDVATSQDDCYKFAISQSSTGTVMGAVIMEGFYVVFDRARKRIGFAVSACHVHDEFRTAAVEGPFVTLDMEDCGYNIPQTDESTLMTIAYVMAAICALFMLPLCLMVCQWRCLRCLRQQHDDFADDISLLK

[2] = molecular target: T2, Aβ25–35 (Homo sapiens, UniProt P05067); experiment: Thioflavin T assay of Aβ25–35 aggregation; type: biochemical; details: compound 100 µM co-incubated with Aβ25–35 100 µM, 72 hours, 37 °C
T2 construct: Aβ25–35 was bought from Anaspec in powdered form; purchased Anaspec
Method: The dye Thioflavin T (ThT), is used to quantify amyloid aggregates. On binding to the beta sheets of amyloid aggregates, the rotation of the ThT rings is hampered thus preserving the excited states leading to fluorescence enhancement. The Aβ25–35 sample was prepared by dissolving it in HFIP to remove any preformed aggregates and keeping aliquots at −80 °C. On the day of assay, aliquot of the HFIP dissolved Aβ25–35 (final concentration 100 µM) was lyophilized. Thereafter the lyophilized sample was dissolved in phosphate buffer. A stock solution of the compounds with concentration of 1 mM was prepared in DMSO. The compounds with final concentration of 100 µM were co-incubated with Aβ25–35 for 72 hours at 37 °C. The co-incubated samples were diluted five times. A stock solution of Thioflavin T was prepared in DMSO and final concentration of 15 µM was added. The fluorescence was measured by excitation at 440 nm and emission at 460–550 nm.

BACE1 inhibition activity (in words) ([1]; compound 1 µM) | inhibition at 1 µM ([1]; compound 1 µM, 37 °C, 2 hours) | reduction in the fibril formation [2] | Structure (SMILES) | inhibition at 1 µM [1]
moderate BACE1 inhibition activity | 17% | more than 50% | COC(=O)C(Cc1ccccc1)NC(=O)COc1cc(O)c2c(=O)c(-c3ccc4c(c3)OCCO4)coc2c1 (stereo not shown) [ZINC01758814] | –
– | – | – | O=c1c(O)c(-c2ccc(O)c(O)c2)oc2c(O)c(O)cc(O)c12 [Gossypetin, reference compound] | 4.6%
